Experimental data: patent publication US20250353891A1 (MEDIMMUNE LIMITED, priority 2022, published 2025)
Starred links: 1 amine or outer side, 2 acyl side, 3 side chain; linkers in the order of their positions; H or OH if unused. Non-standard residues stand in square brackets, D forms with d. Residues, ends and D or L forms follow the SMILES beside them. Groups on a side chain read outwards from the residue. *: point of attachment. γGlu = O=C(O)[C@H](CCC(=O)[*:2])N[*:1]; Stearoyl = CCCCCCCCCCCCCCCCCC(=O)*; Palmitoyl = CCCCCCCCCCCCCCCC(=O)*; αMeF = C[C@](N)(Cc1ccccc1)C(=O)O; Myristoyl = CCCCCCCCCCCCCC(=O)*; αMeS = C[C@](N)(CO)C(=O)O; PEG2 = NCCOCCOCCC(=O)O; Aib = CC(C)(N)C(=O)O

Tests used:
[1] = molecular target: human glucagon receptor (hGCGR) (Homo sapiens, UniProt P47871); test: cAMP production (HTRF) in CHO cells expressing hGCGR; format: cell-based; parameters: expressed in transfected cells; conditions: Table 6, peptides modified at position 17; cAMP in CHO hGCGR cells; geometric mean; read-out: hGluc-R EC50
human glucagon receptor (hGCGR), sequence (P47871 26-477): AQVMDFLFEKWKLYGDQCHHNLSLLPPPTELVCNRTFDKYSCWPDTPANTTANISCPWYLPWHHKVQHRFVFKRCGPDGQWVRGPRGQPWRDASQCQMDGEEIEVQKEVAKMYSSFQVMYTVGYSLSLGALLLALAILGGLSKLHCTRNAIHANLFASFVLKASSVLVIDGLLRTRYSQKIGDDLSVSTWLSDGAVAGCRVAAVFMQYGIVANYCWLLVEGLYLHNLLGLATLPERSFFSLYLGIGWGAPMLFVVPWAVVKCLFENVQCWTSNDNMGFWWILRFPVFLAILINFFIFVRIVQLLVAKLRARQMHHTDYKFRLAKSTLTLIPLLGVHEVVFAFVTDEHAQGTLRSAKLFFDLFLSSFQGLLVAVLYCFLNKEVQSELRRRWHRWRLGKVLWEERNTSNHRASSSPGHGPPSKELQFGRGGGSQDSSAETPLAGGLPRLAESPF
Outline: (§1)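 Read-out: HTRF cAMP (anti-cAMP cryptate donor, cAMP-d2 acceptor in conjugate/lysis buffer), converted to % Delta F and fitted by 4-parameter logistic for EC50. Cell densities were 1×10^5 cells/mL (hGLP-1R) or 2×10^5 cells/mL (hGCGR). Stimulation lasted 30 min at room temperature.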

[2] = molecular target: human GLP-1 receptor (hGLP-1R) (Homo sapiens, UniProt P43220); test: cAMP production (HTRF) in CHO cells expressing hGLP-1R; format: cell-based; parameters: expressed in transfected cells; conditions: for % Relative Potency Ratio: Table 6, % GLP-1R activity relative to GLP-1 / % GlucR activity relative to glucagon; for EC50: Table 6, peptides modified at position 17, cAMP in CHO hGLP-1R cells, geometric mean, read-out: hGLP-1R EC50
human GLP-1 receptor (hGLP-1R), sequence (P43220 24-463): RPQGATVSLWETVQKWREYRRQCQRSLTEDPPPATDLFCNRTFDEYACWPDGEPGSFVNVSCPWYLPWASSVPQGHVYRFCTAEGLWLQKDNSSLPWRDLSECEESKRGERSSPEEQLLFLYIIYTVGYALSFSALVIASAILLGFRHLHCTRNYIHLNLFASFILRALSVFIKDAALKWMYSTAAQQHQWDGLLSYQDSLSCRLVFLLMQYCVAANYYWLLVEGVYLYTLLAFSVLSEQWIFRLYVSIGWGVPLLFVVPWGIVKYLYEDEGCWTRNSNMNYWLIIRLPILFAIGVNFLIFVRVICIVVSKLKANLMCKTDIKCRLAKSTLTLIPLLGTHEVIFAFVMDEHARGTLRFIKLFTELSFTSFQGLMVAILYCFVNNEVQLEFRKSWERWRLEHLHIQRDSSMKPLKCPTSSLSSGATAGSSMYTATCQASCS
Outline: as §1

Compound | EC50 [1] [nM] | % Relative Potency Ratio [2] | EC50 [2] [nM]
CCCCCCCCCCCCCC(=O)N[C@@H](CCC(=O)NCCOCCOCCC(=O)NCCOCCOCCC(=O)NCCCC[C@H](NC(=O)[C@H](CO)NC(=O)[C@H](CC(=O)O)NC(=O)[C@H](CC(C)C)NC(=O)[C@@H](NC(=O)[C@H](CCCCN)NC(=O)[C@H](CO)NC(=O)[C@@H](NC(=O)[C@H](CC(=O)O)NC(=O)[C@H](CO)NC(=O)[C@@H](NC(=O)[C@](C)(Cc1ccccc1)NC(=O)[C@H](CO)NC(=O)CNC(=O)[C@H](CCC(N)=O)NC(=O)C(C)(C)NC(=O)[C@@H](N)Cc1c[nH]cn1)[C@@H](C)O)C(C)C)[C@@H](C)CC)C(=O)N[C@@H](C)C(=O)N[C@@H](C)C(=O)N[C@@H](CCC(N)=O)C(=O)N[C@@H](CC(=O)O)C(=O)N[C@@](C)(Cc1ccccc1)C(=O)N[C@H](C(=O)N[C@@H](CCC(N)=O)C(=O)NC(C)(C)C(=O)N[C@H](C(=O)N[C@H](C(=O)N[C@@H](CC(N)=O)C(=O)N[C@H](C(N)=O)[C@@H](C)O)[C@@H](C)CC)[C@@H](C)CC)C(C)C)C(=O)O [Peptide 129] (H-H[Aib]QGS[αMeF]TSDVSKILDSK([PEG2-PEG2-γGlu-Myristoyl])AAQD[αMeF]VQ[Aib]IINT-NH2) | 0.0041 | 17.6 | 
CCCCCCCCCCCCCCCC(=O)N[C@@H](CCC(=O)N[C@@H](CCC(=O)NCCOCCOCCC(=O)NCCOCCOCCC(=O)NCCCC[C@H](NC(=O)[C@H](CO)NC(=O)[C@H](CC(=O)O)NC(=O)[C@H](CC(C)C)NC(=O)[C@@H](NC(=O)[C@H](CCCCN)NC(=O)[C@H](CO)NC(=O)[C@@H](NC(=O)[C@H](CC(=O)O)NC(=O)[C@H](CO)NC(=O)[C@@H](NC(=O)[C@](C)(Cc1ccccc1)NC(=O)[C@H](CO)NC(=O)CNC(=O)[C@H](CCC(N)=O)NC(=O)[C@](C)(CO)NC(=O)[C@@H](N)Cc1c[nH]cn1)[C@@H](C)O)C(C)C)[C@@H](C)CC)C(=O)N[C@@H](C)C(=O)N[C@@H](C)C(=O)N[C@@H](CCC(N)=O)C(=O)N[C@@H](CC(=O)O)C(=O)N[C@@](C)(Cc1ccccc1)C(=O)N[C@H](C(=O)N[C@@H](CCC(N)=O)C(=O)NC(C)(C)C(=O)N[C@H](C(=O)N[C@H](C(=O)N[C@@H](CC(N)=O)C(=O)N[C@H](C(N)=O)[C@@H](C)O)[C@@H](C)CC)[C@@H](C)CC)C(C)C)C(=O)O)C(=O)O [Peptide 131] (H-H[αMeS]QGS[αMeF]TSDVSKILDSK([PEG2-PEG2-γGlu-γGlu-Palmitoyl])AAQD[αMeF]VQ[Aib]IINT-NH2; N-terminus assumed) | 0.0178 | 68.9 | 
CCCCCCCCCCCCCCCCCC(=O)N[C@@H](CCC(=O)NCCOCCOCCC(=O)NCCOCCOCCC(=O)NCCCC[C@H](NC(=O)[C@H](CO)NC(=O)[C@H](CC(=O)O)NC(=O)[C@H](CC(C)C)NC(=O)[C@@H](NC(=O)[C@H](CCCCN)NC(=O)[C@H](CO)NC(=O)[C@@H](NC(=O)[C@H](CC(=O)O)NC(=O)[C@H](CO)NC(=O)[C@@H](NC(=O)[C@](C)(Cc1ccccc1)NC(=O)[C@H](CO)NC(=O)CNC(=O)[C@H](CCC(N)=O)NC(=O)[C@](C)(CO)NC(=O)[C@@H](N)Cc1c[nH]cn1)[C@@H](C)O)C(C)C)[C@@H](C)CC)C(=O)N[C@@H](C)C(=O)N[C@@H](C)C(=O)N[C@@H](CCC(N)=O)C(=O)N[C@@H](CC(=O)O)C(=O)N[C@@](C)(Cc1ccccc1)C(=O)N[C@H](C(=O)N[C@@H](CCC(N)=O)C(=O)NC(C)(C)C(=O)N[C@H](C(=O)N[C@H](C(=O)N[C@@H](CC(N)=O)C(=O)N[C@H](C(N)=O)[C@@H](C)O)[C@@H](C)CC)[C@@H](C)CC)C(C)C)C(=O)O [Peptide 133] (H-H[αMeS]QGS[αMeF]TSDVSKILDSK([PEG2-PEG2-γGlu-Stearoyl])AAQD[αMeF]VQ[Aib]IINT-NH2; N-terminus assumed) | 0.03 | 55.9 | 0.00106
CCCCCCCCCCCCCCCC(=O)N[C@@H](CCC(=O)NCCOCCOCCC(=O)NCCOCCOCCC(=O)NCCCC[C@H](NC(=O)[C@H](CO)NC(=O)[C@H](CC(=O)O)NC(=O)[C@H](CC(C)C)NC(=O)[C@@H](NC(=O)[C@H](CCCCN)NC(=O)[C@H](CO)NC(=O)[C@@H](NC(=O)[C@H](CC(=O)O)NC(=O)[C@H](CO)NC(=O)[C@@H](NC(=O)[C@](C)(Cc1ccccc1)NC(=O)[C@H](CO)NC(=O)CNC(=O)[C@H](CCC(N)=O)NC(=O)[C@](C)(CO)NC(=O)[C@@H](N)Cc1c[nH]cn1)[C@@H](C)O)C(C)C)[C@@H](C)CC)C(=O)N[C@@H](C)C(=O)N[C@@H](C)C(=O)N[C@@H](CCC(N)=O)C(=O)N[C@@H](CC(=O)O)C(=O)N[C@@](C)(Cc1ccccc1)C(=O)N[C@H](C(=O)N[C@@H](CCC(N)=O)C(=O)NC(C)(C)C(=O)N[C@H](C(=O)N[C@H](C(=O)N[C@@H](CC(N)=O)C(=O)N[C@H](C(N)=O)[C@@H](C)O)[C@@H](C)CC)[C@@H](C)CC)C(C)C)C(=O)O [Peptide 134] (H-H[αMeS]QGS[αMeF]TSDVSKILDSK([PEG2-PEG2-γGlu-Palmitoyl])AAQD[αMeF]VQ[Aib]IINT-NH2; N-terminus assumed) | 0.015 | 50.1 | 

Next, values leading:

EC50 [1] [nM] | % Relative Potency Ratio [2] | EC50 [2] [nM] | Compound
0.0329 | 59.9 | 0.00109 | CCCCCCCCCCCCCCCCCC(=O)N[C@@H](CCC(=O)N[C@@H](CCC(=O)NCCOCCOCCC(=O)NCCOCCOCCC(=O)NCCCC[C@H](NC(=O)[C@H](CO)NC(=O)[C@H](CC(=O)O)NC(=O)[C@H](CC(C)C)NC(=O)[C@@H](NC(=O)[C@H](CCCCN)NC(=O)[C@H](CO)NC(=O)[C@@H](NC(=O)[C@H](CC(=O)O)NC(=O)[C@H](CO)NC(=O)[C@@H](NC(=O)[C@](C)(Cc1ccccc1)NC(=O)[C@H](CO)NC(=O)CNC(=O)[C@H](CCC(N)=O)NC(=O)[C@](C)(CO)NC(=O)[C@@H](N)Cc1c[nH]cn1)[C@@H](C)O)C(C)C)[C@@H](C)CC)C(=O)N[C@@H](C)C(=O)N[C@@H](C)C(=O)N[C@@H](CCC(N)=O)C(=O)N[C@@H](CC(=O)O)C(=O)N[C@@](C)(Cc1ccccc1)C(=O)N[C@H](C(=O)N[C@@H](CCC(N)=O)C(=O)NC(C)(C)C(=O)N[C@H](C(=O)N[C@H](C(=O)N[C@@H](CC(N)=O)C(=O)N[C@H](C(N)=O)[C@@H](C)O)[C@@H](C)CC)[C@@H](C)CC)C(C)C)C(=O)O)C(=O)O [Peptide 130] (H-H[αMeS]QGS[αMeF]TSDVSKILDSK([PEG2-PEG2-γGlu-γGlu-Stearoyl])AAQD[αMeF]VQ[Aib]IINT-NH2; N-terminus assumed)
0.0343 | 71.5 |  | CCCCCCCCCCCCCC(=O)N[C@@H](CCC(=O)N[C@@H](CCC(=O)NCCOCCOCCC(=O)NCCOCCOCCC(=O)NCCCC[C@H](NC(=O)[C@H](CO)NC(=O)[C@H](CC(=O)O)NC(=O)[C@H](CC(C)C)NC(=O)[C@@H](NC(=O)[C@H](CCCCN)NC(=O)[C@H](CO)NC(=O)[C@@H](NC(=O)[C@H](CC(=O)O)NC(=O)[C@H](CO)NC(=O)[C@@H](NC(=O)[C@](C)(Cc1ccccc1)NC(=O)[C@H](CO)NC(=O)CNC(=O)[C@H](CCC(N)=O)NC(=O)[C@](C)(CO)NC(=O)[C@@H](N)Cc1c[nH]cn1)[C@@H](C)O)C(C)C)[C@@H](C)CC)C(=O)N[C@@H](C)C(=O)N[C@@H](C)C(=O)N[C@@H](CCC(N)=O)C(=O)N[C@@H](CC(=O)O)C(=O)N[C@@](C)(Cc1ccccc1)C(=O)N[C@H](C(=O)N[C@@H](CCC(N)=O)C(=O)NC(C)(C)C(=O)N[C@H](C(=O)N[C@H](C(=O)N[C@@H](CC(N)=O)C(=O)N[C@H](C(N)=O)[C@@H](C)O)[C@@H](C)CC)[C@@H](C)CC)C(C)C)C(=O)O)C(=O)O [Peptide 132] (H-H[αMeS]QGS[αMeF]TSDVSKILDSK([PEG2-PEG2-γGlu-γGlu-Myristoyl])AAQD[αMeF]VQ[Aib]IINT-NH2; N-terminus assumed)
0.015 | 72.8 |  | CCCCCCCCCCCCCC(=O)N[C@@H](CCC(=O)NCCOCCOCCC(=O)NCCOCCOCCC(=O)NCCCC[C@H](NC(=O)[C@H](CO)NC(=O)[C@H](CC(=O)O)NC(=O)[C@H](CC(C)C)NC(=O)[C@@H](NC(=O)[C@H](CCCCN)NC(=O)[C@H](CO)NC(=O)[C@@H](NC(=O)[C@H](CC(=O)O)NC(=O)[C@H](CO)NC(=O)[C@@H](NC(=O)[C@](C)(Cc1ccccc1)NC(=O)[C@H](CO)NC(=O)CNC(=O)[C@H](CCC(N)=O)NC(=O)[C@](C)(CO)NC(=O)[C@@H](N)Cc1c[nH]cn1)[C@@H](C)O)C(C)C)[C@@H](C)CC)C(=O)N[C@@H](C)C(=O)N[C@@H](C)C(=O)N[C@@H](CCC(N)=O)C(=O)N[C@@H](CC(=O)O)C(=O)N[C@@](C)(Cc1ccccc1)C(=O)N[C@H](C(=O)N[C@@H](CCC(N)=O)C(=O)NC(C)(C)C(=O)N[C@H](C(=O)N[C@H](C(=O)N[C@@H](CC(N)=O)C(=O)N[C@H](C(N)=O)[C@@H](C)O)[C@@H](C)CC)[C@@H](C)CC)C(C)C)C(=O)O [Peptide 135] (H-H[αMeS]QGS[αMeF]TSDVSKILDSK([PEG2-PEG2-γGlu-Myristoyl])AAQD[αMeF]VQ[Aib]IINT-NH2; N-terminus assumed)
